Measured values from US11655216B2 (priority 2016, dated 2023).
Read-outs that look alike come from different tables or passages of the source.

Columns and labels:
[1] = biological target: T1, glutathione-S-transferase (GST) tagged LXRalpha LBD (ligand binding domain) (Homo sapiens, UniProt Q13133); assay: biochemical
T1 construct: purchased Invitrogen pv4655
T1 sequence (Q13133 209-447 limits assumed): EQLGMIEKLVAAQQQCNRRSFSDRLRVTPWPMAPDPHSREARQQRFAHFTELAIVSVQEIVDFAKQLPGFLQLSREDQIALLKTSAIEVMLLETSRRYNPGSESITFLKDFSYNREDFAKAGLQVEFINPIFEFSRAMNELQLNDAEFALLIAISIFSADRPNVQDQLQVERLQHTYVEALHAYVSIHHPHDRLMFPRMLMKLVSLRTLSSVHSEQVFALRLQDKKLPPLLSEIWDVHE
Outline: (§1)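 TR-FRET read-out of coactivator recruitment: fluorescein-coactivator peptide plus Tb-anti-GST antibody added to LBD preincubated with compound; incubated at RT before reading.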

[2] = biological target: T2, glutathione-S-transferase (GST) tagged LXRbeta LBD (ligand binding domain) (Homo sapiens, UniProt P55055); assay: LanthaScreen TR-FRET Liver X Receptor Coactivator Assay, LXR beta; type: biochemical; settings: for EC50: LXR beta IP, potency (Inflection Point), compound-induced co-activator recruitment, TR-FRET; for Emax: read-out: LXR beta actiivty at max dose, efficacy (% Emax) in relation to reference dual agonist T0901317
T2 construct: purchased Invitrogen pv4658
T2 sequence (P55055 222-460 limits assumed): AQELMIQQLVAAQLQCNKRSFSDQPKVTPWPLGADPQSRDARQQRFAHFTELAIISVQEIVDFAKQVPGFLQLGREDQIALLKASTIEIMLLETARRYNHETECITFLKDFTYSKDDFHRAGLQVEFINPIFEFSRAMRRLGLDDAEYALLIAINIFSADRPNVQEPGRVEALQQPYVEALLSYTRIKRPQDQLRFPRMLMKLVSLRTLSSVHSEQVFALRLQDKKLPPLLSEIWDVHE
Outline: as §1

[3] = LXR alpha IP, potency (Inflection Point), compound-induced co-activator recruitment, TR-FRET
[4] = read-out: LXR alpha actiivty at max dose, efficacy (% Emax) in relation to reference dual agonist T0901317
[5] = potency (Inflection Point), compound-induced co-activator recruitment, TR-FRET

SMILES	EC50 [1, 3] [nM]	Emax [1, 4] [%]	EC50 [2] [nM]	Emax [2] [%]	EC50 ([1]; potency (Inflection Point), compound-induced co-activator recruitment, TR-FRET, read-out: LXR alpha IP) [nM]	LXR alpha IP [1, 5]	LXR alpha IP [1]	Emax ([1]; read-out: LXR alpha actiivty at max dose) [%]
CN(C)C(=O)c1ccc(O[C@H]2C[C@@H](CC3CCN(C(=O)[C@](O)(c4cc(F)cc(Cl)c4)C(F)(F)F)CC3)C2)cc1Cl (single isomer, unassigned) [Example 37-10, 2-chloro-4-((1R,3s)-3-((1-((R or S)-2-(3-chloro-5-fluorophenyl)-3,3,3-trifluoro-2-hydroxypropanoyl)piperidin-4-yl)methyl)cyclobutoxy)-N,N-dimethylbenzamide]	318	46	5	140				
CN(C)C(=O)c1ccc(OC2CC(CC3CCN(C(=O)[C@](O)(c4ccccc4)C(F)(F)F)CC3)C2)cc1Cl (single isomer, unassigned) [Example 37-11, (R or S)-2-chloro-N,N-dimethyl-4-(3-((1-(3,3,3-trifluoro-2-hydroxy-2-phenylpropanoyl)piperidin-4-yl)methyl)cyclobutoxy) benzamide]		33	92	113	563			
Cc1cc(OC2CC(CC3CCN(C(=O)C(O)(c4cccc(OC5CC5)c4)C(F)(F)F)CC3)C2)ccc1C(=O)N(C)C (single isomer, unassigned) [Example 37-12, (R or S)-4-(3-((1-(2-(3-cyclopropoxyphenyl)-3,3,3-trifluoro-2-hydroxypropanoyl)piperidin-4-yl)methyl)cyclobutoxy)-N,N,2-trimethylbenzamide]		0	63	106		No IP		
COc1cccc([C@@](O)(C(=O)N2CCC([C@H]3CC[C@@H](Oc4ccc(C(=O)N(C)C)c(Cl)c4)CC3)CC2)C(F)(F)F)c1 (single isomer, unassigned) [Example 38-1, 2-chloro-N,N-dimethyl-4-((1S,4s)-4-(1-((R or S)-3,3,3-trifluoro-2-hydroxy-2-(3-methoxyphenyl)propanoyl)piperidin-4-yl)cyclohexyloxy)benzamid]	49	44	3	89				
CN(C)C(=O)c1ccc(OCCCC2CCN(C(=O)c3cc(F)ccc3F)CC2)cc1Cl [Example 3-1, 2-chloro-4-(3-(1-(2,5-difluorobenzoyl)piperidin-4-yl)propoxy)-N,N-dimethylbenzamide]			501	62			No IP	32
CN(C)C(=O)c1ccc(OCCCCC2CCN(C(=O)C(C)(C)c3ccccc3)CC2)cc1Cl [Example 3-6, 2-chloro-N,N-dimethyl-4-(4-(1-(2-methyl-2-phenylpropanoyl)piperidin-4-yl)butoxy)benzamide]		8	77	64		No IP		
CN(C)C(=O)c1ccc(OCCCCC2CCN(C(=O)C3(c4ccccc4)CCC3)CC2)cc1Cl [Example 3-7, 2-chloro-N,N-dimethyl-4-(4-(1-(1-phenylcyclobutanecarbonyl)piperidin-4-yl)butoxy)benzamide]		0	57	54		No IP		
CN(C)C(=O)c1ccc(OCCCC2CCN(C(=O)c3c(F)cccc3F)CC2)nc1Cl [Example 3-14, 2-chloro-6-(3-(1-(2,6-difluorobenzoyl)piperidin-4-yl)propoxy)-N,N-dimethylnicotinamide]		46	160	77		No IP		
CN(C)C(=O)c1ccc(OCCCCC2CCN(C(=O)c3c(F)cccc3F)CC2)nc1Cl [Example 3-15, 2-chloro-6-(4-(1-(2,6-difluorobenzoyl)piperidin-4-yl)butoxy)-N,N-dimethylnicotinamide]		14	328	80		No IP		
